Assay results from US20260324636A1, “COMPOSITION FOR PROVIDING PLANT WITH STRESS RESISTANCE” (KIRIN HOLDINGS KABUSHIKI KAISHA, priority 2022, published 2026).

Key:
[1] = system: HSFA2; test: HSFA2 gene expression by real-time PCR, Example 5; type: in vivo; details: Arabidopsis thaliana; 0.1 mM in medium, 2 hours after application, 22° C.; read-out: HSFA2 expression level, increase vs group not subjected to the treatment
Method: The materials as used in Example 1 were used.
The method as employed in Example 1 was employed.
N-acetylglutamic acid was applied to Arabidopsis thaliana 7 days after inoculation to the final concentration of 0.1 mM in the medium, followed by incubation for 2 hours or 6 hours. The incubator was maintained at a temperature of 22° C. for a daily cycle of 16 hours light and 8 hours darkness. After incubation, the samples were frozen with liquid nitrogen, and RNA was extracted using the RNeasy Plant Mini Kit (Thermo Fischer Scientific).
cDNA that would be necessary as a real-time PCR template was synthesized from the RNA obtained. 500 ng total RNA was used for each sample, and cDNA was synthesized using the Verso cDNA Synthesis Kit (Thermo Fischer Scientific). The synthesized cDNA was diluted to 5-fold with sterile distilled water and subjected to real-time PCR. For real-time PCR, a reaction solution containing HSFA2 (AGI code: AT2G26150) and HSP17.6C (AGI code: AT1G53540) as the target genes, ACTIN2 (AGI code: AT3G18780) as the reference gene, and TB Green Ex Taq II (TaKaRa) was prepared. PCR was performed with the use of the LightCycler® 480 System (Roche) with the number of amplification cycles of 50. […]
Thereafter, the relative expression level of the target genes upon N-acetylglutamic acid treatment were calculated by the ΔΔCt method using the Cp values obtained by real-time PCR.

[2] = system: H1HSP17.6C; test: H1HSP17.6C gene expression by real-time PCR, Example 7; type: in vivo, hop; details: 1 mM in medium, 20° C. for 2 hours, leaves; read-out: H1HSP17.6C expression level, increase vs control
Source text: In order to design primers for the target genes necessary for gene expression analysis by real-time PCR, homologs of Arabidopsis thaliana high-temperature-responsive genes in hop were searched for. The amino acid sequences of Arabidopsis thaliana HSFA2 (AGI code: AT2G26150) and HSP17.6C (AGI code: AT1G53540) were obtained from TAIR (https://www.arabidopsis.org/), and the nucleotide sequences of the gene homologs were obtained using Hopbase (https://hopbase.cgrb.oregonstate.edu/). […] As the reference gene, the nucleotide sequence of the homolog of Arabidopsis thaliana EF1α (AGI code: AT1G18070) was obtained. The hop homolog genes were designated as H1HSFA2, H1HSP17.6C, and HIEF1α, respectively.
The materials as used in Example 4 were used.
The methods as employed in Example 4 were employed.
The leaves in the first and the second nodes from the apical buds of the tissue-cultured seedlings were sampled 1.5 months after the initiation of subculture and inoculated into a liquid medium consisting of a ½ Murashige and Skoog Plant Salt Mixture and 2 (w/v) % glucose. Specifically, a liquid medium was dispensed at 5 ml/well to a 6-well microplate (IWAKI), and 5 hop leaves were mounted thereon. […]
Thereafter, the relative expression level of the target gene upon N-acetylglutamic acid treatment was calculated by the ΔΔCt method.

Compound CC(=O)N[C@@H](CCC(=O)O)C(=O)O [N-acetylglutamic acid] has a fold induction at 100 µM [1] of 2.5 and a fold induction at 1000 µM [2] of 1.8.
